According to the supplement of paper PMC9013687:
± gives the standard deviation of the averaged measurements.

Key:
Danio rerio embryo [1] = experiment: EC50 Curvature_Increase
Method: (§1)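 Zebrafish embryos (UFZ-OBI strain) were exposed from 2 hpf for 48 h (2 dpf) or 96 h (4 dpf) at 28 °C; spontaneous tail coiling was scored at 25 hpf. Morphological features from automated image analysis (FishInspector), heart rate and locomotor response were fitted with drc models. Quantal endpoints were dichotomised at 2.5 SD from controls and fitted with a log-logistic model; heart rate, pigmentation and STC were normalised to the replicate control mean. Betamethasone was tested as betamethasone dipropionate, diflorasone as diflorasone diacetate.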

Danio rerio embryo [2] = experiment: EC20 LMR dark; higher = less potent; conditions: exposure time: 4 dpf
Method: as §1

Danio rerio embryo [3] = experiment: EC10 Eye-jaw distance_Decrease; higher = less potent; conditions: exposure time: 4 dpf
Method: as §1

Danio rerio embryo [4] = experiment: EC20 Eye-jaw distance_Decrease; higher = less potent; conditions: exposure time: 4 dpf
Method: as §1

Danio rerio embryo [5] = conditions: exposure time: 4 dpf
Method: as §1

Danio rerio embryo [6] = experiment: EC10 Otolith-eye distance_Decrease; higher = less potent; conditions: exposure time: 4 dpf
Method: as §1

Danio rerio embryo [7] = system: Danio rerio embryo
Method: as §1

Danio rerio embryo [8] = experiment: EC20 Body length_Decrease; higher = less potent
Method: as §1

Danio rerio embryo [9] = experiment: EC20 Bladder size_Decrease; higher = less potent; conditions: exposure time: 4 dpf
Method: as §1

Danio rerio embryo [10] = experiment: EC50 Eye size_Decrease
Method: as §1

Danio rerio embryo [11] = experiment: EC10 Bladder size_Decrease; higher = less potent; conditions: exposure time: 4 dpf
Method: as §1

Danio rerio embryo [12] = experiment: EC20 Curvature_Increase; higher = less potent
Method: as §1

Danio rerio embryo [13] = experiment: EC50 Eye-jaw distance_Decrease; conditions: exposure time: 4 dpf
Method: as §1

Danio rerio embryo [14] = experiment: EC10 LMR dark; higher = less potent; conditions: exposure time: 4 dpf
Method: as §1

Danio rerio embryo [15] = experiment: EC50 Otolith-eye distance_Decrease; conditions: exposure time: 4 dpf
Method: as §1

Danio rerio embryo [16] = experiment: EC10 Curvature_Increase; higher = less potent
Method: as §1

Danio rerio embryo [17] = experiment: EC50 Yolk sac size_Increase; conditions: exposure time: 4 dpf
Method: as §1

Danio rerio embryo [18] = experiment: EC20 Otolith-eye distance_Decrease; higher = less potent; conditions: exposure time: 4 dpf
Method: as §1

Danio rerio embryo [19] = experiment: EC20 Pericard size_Increase; higher = less potent
Method: as §1

Danio rerio embryo [20] = experiment: EC50 Bladder size_Decrease; conditions: exposure time: 4 dpf
Method: as §1

Danio rerio embryo [21] = experiment: EC10 Body length_Decrease; higher = less potent
Method: as §1

Danio rerio embryo [22] = experiment: EC20 Any effect; higher = less potent
Method: as §1

Danio rerio embryo [23] = experiment: EC50 Pericard size_Increase
Method: as §1

Danio rerio embryo [24] = experiment: EC10 Pericard size_Increase; higher = less potent
Method: as §1

Danio rerio embryo [25] = experiment: EC10 Yolk sac size_Increase; higher = less potent; conditions: exposure time: 4 dpf
Method: as §1

Danio rerio embryo [26] = experiment: EC50 Body length_Decrease
Method: as §1

Danio rerio embryo [27] = experiment: EC20 Yolk sac size_Increase; higher = less potent; conditions: exposure time: 4 dpf
Method: as §1

Danio rerio embryo [28] = experiment: EC50 Head trunk angle_Decrease; conditions: exposure time: 2 dpf
Method: as §1

Danio rerio embryo [29] = experiment: spontaneous tail coiling frequency (coils/min/embryo); higher = more spontaneous movement; conditions: 25 hpf
Method: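 Spontaneous tail coilings of zebrafish embryos exposed from 2 hpf were recorded at 24-25 hpf in 1-min videos and detected by a KNIME workflow from grey-value variance. Betamethasone was tested as the dipropionate, diflorasone as the diacetate.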

Danio rerio embryo [30] = experiment: EC10 Any effect; higher = less potent
Method: as §1

CC(C)(C)C(O)C(Oc1ccc(Cl)cc1)n1cncn1 (stereo unspecified) [Triadimenol]
Conditions | EC10 Any effect [µM] | EC10 Body length Decrease [µM] | EC10 Curvature Increase [µM] | EC10 Pericard size Increase [µM] | EC20 Any effect [µM] | EC20 Body length Decrease [µM] | EC20 Curvature Increase [µM] | EC20 Pericard size Increase [µM] | EC50 Any effect [µM] | EC50 Body length Decrease [µM] | EC50 Curvature Increase [µM] | EC50 Eye size Decrease [µM] | EC50 Pericard size Increase [µM] | EC50 STC decrease [µM] | spontaneous tail coiling frequency
Danio rerio embryo [1], exposure time: 2 dpf | – | – | – | – | – | – | – | – | – | – | 136 | – | – | – | –
Danio rerio embryo [1], exposure time: 4 dpf | – | – | – | – | – | – | – | – | – | – | 117 | – | – | – | –
Danio rerio embryo [7], exposure time: 2 dpf | – | – | – | – | – | – | – | – | 133 | – | – | – | – | – | –
Danio rerio embryo [7], exposure time: 4 dpf | – | – | – | – | – | – | – | – | 45.5 | – | – | – | – | – | –
Danio rerio embryo [7], exposure time: 25 h | – | – | – | – | – | – | – | – | – | – | – | – | – | 169 | –
Danio rerio embryo [8], exposure time: 2 dpf | – | – | – | – | – | 98.6 | – | – | – | – | – | – | – | – | –
Danio rerio embryo [8], exposure time: 4 dpf | – | – | – | – | – | 82.5 | – | – | – | – | – | – | – | – | –
Danio rerio embryo [10], exposure time: 2 dpf | – | – | – | – | – | – | – | – | – | – | – | 200 | – | – | –
Danio rerio embryo [10], exposure time: 4 dpf | – | – | – | – | – | – | – | – | – | – | – | 108 | – | – | –
Danio rerio embryo [12], exposure time: 2 dpf | – | – | – | – | – | – | 123 | – | – | – | – | – | – | – | –
Danio rerio embryo [12], exposure time: 4 dpf | – | – | – | – | – | – | 82.4 | – | – | – | – | – | – | – | –
Danio rerio embryo [16], exposure time: 2 dpf | – | – | 116 | – | – | – | – | – | – | – | – | – | – | – | –
Danio rerio embryo [16], exposure time: 4 dpf | – | – | 67.2 | – | – | – | – | – | – | – | – | – | – | – | –
Danio rerio embryo [19], exposure time: 2 dpf | – | – | – | – | – | – | – | 146 | – | – | – | – | – | – | –
Danio rerio embryo [19], exposure time: 4 dpf | – | – | – | – | – | – | – | 71 | – | – | – | – | – | – | –
Danio rerio embryo [21], exposure time: 2 dpf | – | 71.8 | – | – | – | – | – | – | – | – | – | – | – | – | –
Danio rerio embryo [21], exposure time: 4 dpf | – | 71.3 | – | – | – | – | – | – | – | – | – | – | – | – | –
Danio rerio embryo [22], exposure time: 2 dpf | – | – | – | – | 127 | – | – | – | – | – | – | – | – | – | –
Danio rerio embryo [22], exposure time: 4 dpf | – | – | – | – | 31.7 | – | – | – | – | – | – | – | – | – | –
Danio rerio embryo [23], exposure time: 2 dpf | – | – | – | – | – | – | – | – | – | – | – | – | 225 | – | –
Danio rerio embryo [23], exposure time: 4 dpf | – | – | – | – | – | – | – | – | – | – | – | – | 84.3 | – | –
Danio rerio embryo [24], exposure time: 2 dpf | – | – | – | 113 | – | – | – | – | – | – | – | – | – | – | –
Danio rerio embryo [24], exposure time: 4 dpf | – | – | – | 64.1 | – | – | – | – | – | – | – | – | – | – | –
Danio rerio embryo [26], exposure time: 2 dpf | – | – | – | – | – | – | – | – | – | 169 | – | – | – | – | –
Danio rerio embryo [26], exposure time: 4 dpf | – | – | – | – | – | – | – | – | – | 106 | – | – | – | – | –
Danio rerio embryo [29], 10.6 µM | – | – | – | – | – | – | – | – | – | – | – | – | – | – | 2.49
Danio rerio embryo [29], 21.1 µM | – | – | – | – | – | – | – | – | – | – | – | – | – | – | 2.29
Danio rerio embryo [29], 42.3 µM | – | – | – | – | – | – | – | – | – | – | – | – | – | – | 3.32 ± 0.78
Danio rerio embryo [29], 84.5 µM | – | – | – | – | – | – | – | – | – | – | – | – | – | – | 2.24 ± 0.39
Danio rerio embryo [29], 118.3 µM | – | – | – | – | – | – | – | – | – | – | – | – | – | – | 1.91
Danio rerio embryo [29], 169.1 µM | – | – | – | – | – | – | – | – | – | – | – | – | – | – | 1.28 ± 0.37
Danio rerio embryo [29], 253.6 µM | – | – | – | – | – | – | – | – | – | – | – | – | – | – | 0.06
Danio rerio embryo [29], 338.1 µM | – | – | – | – | – | – | – | – | – | – | – | – | – | – | 0
Danio rerio embryo [30], exposure time: 2 dpf | 123 | – | – | – | – | – | – | – | – | – | – | – | – | – | –
Danio rerio embryo [30], exposure time: 4 dpf | 25.7 | – | – | – | – | – | – | – | – | – | – | – | – | – | –

Conditions | EC10 Bladder size Decrease [µM] | EC10 Eye-jaw distance Decrease [µM] | EC10 LMR dark [µM] | EC10 Otolith-eye distance Decrease [µM] | EC10 Yolk sac size Increase [µM] | EC20 Bladder size Decrease [µM] | EC20 Eye-jaw distance Decrease [µM] | EC20 LMR dark [µM] | EC20 Otolith-eye distance Decrease [µM] | EC20 Yolk sac size Increase [µM] | EC50 Bladder size Decrease [µM] | EC50 Eye-jaw distance Decrease [µM] | EC50 Head trunk angle Decrease [µM] | EC50 LMR dark [µM] | EC50 Otolith-eye distance Decrease [µM] | EC50 Yolk sac size Increase [µM]
Danio rerio embryo [2] | – | – | – | – | – | – | – | 10.7 | – | – | – | – | – | – | – | –
Danio rerio embryo [3] | – | 36.1 | – | – | – | – | – | – | – | – | – | – | – | – | – | –
Danio rerio embryo [4] | – | – | – | – | – | – | 41.2 | – | – | – | – | – | – | – | – | –
Danio rerio embryo [5] | – | – | – | – | – | – | – | – | – | – | – | – | – | 25.2 | – | –
Danio rerio embryo [6] | – | – | – | 63.4 | – | – | – | – | – | – | – | – | – | – | – | –
Danio rerio embryo [9] | – | – | – | – | – | 20.2 | – | – | – | – | – | – | – | – | – | –
Danio rerio embryo [11] | 19.9 | – | – | – | – | – | – | – | – | – | – | – | – | – | – | –
Danio rerio embryo [13] | – | – | – | – | – | – | – | – | – | – | – | 51.4 | – | – | – | –
Danio rerio embryo [14] | – | – | 6.51 | – | – | – | – | – | – | – | – | – | – | – | – | –
Danio rerio embryo [15] | – | – | – | – | – | – | – | – | – | – | – | – | – | – | 97.6 | –
Danio rerio embryo [17] | – | – | – | – | – | – | – | – | – | – | – | – | – | – | – | 114
Danio rerio embryo [18] | – | – | – | – | – | – | – | – | 74.3 | – | – | – | – | – | – | –
Danio rerio embryo [20] | – | – | – | – | – | – | – | – | – | – | 20.7 | – | – | – | – | –
Danio rerio embryo [25] | – | – | – | – | 76.8 | – | – | – | – | – | – | – | – | – | – | –
Danio rerio embryo [27] | – | – | – | – | – | – | – | – | – | 88.7 | – | – | – | – | – | –
Danio rerio embryo [28] | – | – | – | – | – | – | – | – | – | – | – | – | 152 | – | – | –
